Test results taken from article PMC12399242 (Acta Pharmaceutica Sinica. B, 2025).

What was measured:
[1] = tested on: HIV-1 (IIIB); assay: microbe, parasite or virus in culture; assay type: cell-based; conditions: for EC50: Human immunodeficiency virus 1, IIIB, MT4, WT HIV-1, protection of MT-4 cells against HIV-induced cytopathogenicity, mean ± SD, n ≥ 3; for SI (IIIB): selectivity index, ratio CC50/EC50
Excerpt: (§1) Inspired by our previous research on heteroaromatic-biphenyl-DAPYs[15], the 4-cyanophenyl group on the biphenyl moiety was replaced with a privileged 4-pyridyl group for further evaluation.

[2] = in vitro; conditions: human, CC50
Excerpt: as §1

Row | SMILES | EC50 [1] | SI (IIIB) [1] | CC50 [2]
1 | N#Cc1ccc(Nc2ncc(F)c(Oc3ccc(-c4ccc(C#N)cc4)cc3Cl)n2)cc1 [A2, 3′-Chloro-4′-((2-((4-cyanophenyl)amino)-5-fluoropyrimidin-4-yl)oxy)-[1,1′-biphenyl]-4-carbonitrile] | 27 ± 25 nM | >1670 | > 45000 nM
2 | Cc1cc(-c2ccc(C#N)cc2)ccc1Oc1nc(Nc2ccc(C#N)cc2)ncc1F [A3, 4′-((2-((4-Cyanophenyl)amino)-5-fluoropyrimidin-4-yl)oxy)-3′-methyl-[1,1′-biphenyl]-4-carbonitrile] | 7.6 ± 2.6 nM | >6349 | > 48000 nM
3 | N#Cc1ccc(Nc2ncc(F)c(Oc3c(F)cc(-c4ccc(C#N)cc4)cc3F)n2)cc1 [A5, 4′-((2-((4-Cyanophenyl)amino)-5-fluoropyrimidin-4-yl)oxy)-3′,5′-difluoro-[1,1′-biphenyl]-4-carbonitrile] | 6.3 ± 3.2 nM | >7143 | > 45000 nM
4 | Cc1cc(-c2ccc(C#N)cc2)cc(C)c1Oc1nc(Nc2ccc(C#N)cc2)ncc1F [A6, 4′-((2-((4-Cyanophenyl)amino)-5-fluoropyrimidin-4-yl)oxy)-3′,5′-dimethyl-[1,1′-biphenyl]-4-carbonitrile] | 7.1 ± 3.2 nM | 30,805 | 219000 ± 12000 nM
5 | N#Cc1ccc(Nc2ncc(F)c(Nc3ccc(-c4ccc(C#N)cc4)cc3Cl)n2)cc1 [A8, 3′-Chloro-4′-((2-((4-cyanophenyl)amino)-5-fluoropyrimidin-4-yl)amino)-[1,1′-biphenyl]-4-carbonitrile] | 43 ± 23 nM | >1038 | > 45000 nM
6 | COc1cc(-c2ccc(C#N)cc2)ccc1Nc1nc(Nc2ccc(C#N)cc2)ncc1F [A10, 4′-((2-((4-Cyanophenyl)amino)-5-fluoropyrimidin-4-yl)amino)-3′-methoxy-[1,1′-biphenyl]-4-carbonitrile] | 23 ± 18 nM | >1961 | > 46000 nM
7 | N#Cc1ccc(Nc2ncc(F)c(Oc3ccc(-c4ccncc4)cc3F)n2)cc1 [A13, 4-((5-Fluoro-4-(2-fluoro-4-(pyridin-4-yl)phenoxy)pyrimidin-2-yl)amino)benzonitrile] | 9.7 ± 3.7 nM | >5147 | > 50000 nM
8 | N#Cc1ccc(Nc2ncc(F)c(Oc3ccc(-c4ccncc4)cc3Cl)n2)cc1 [A14, 4-((4-(2-Chloro-4-(pyridin-4-yl)phenoxy)-5-fluoropyrimidin-2-yl)amino)benzonitrile] | 12 ± 3.1 nM | >3846 | > 48000 nM
9 | Cc1cc(-c2ccncc2)ccc1Oc1nc(Nc2ccc(C#N)cc2)ncc1F [A15, 4-((5-Fluoro-4-(2-methyl-4-(pyridin-4-yl)phenoxy)pyrimidin-2-yl)amino)benzonitrile] | 11 ± 2.5 nM | >4734 | > 50000 nM
10 | N#Cc1ccc(Nc2ncc(F)c(Oc3c(F)cc(-c4ccncc4)cc3F)n2)cc1 [A17, 4-((4-(2,6-Difluoro-4-(pyridin-4-yl)phenoxy)-5-fluoropyrimidin-2 yl)amino)benzonitrile] | 11 ± 4.1 nM | >4396 | > 48000 nM
11 | Cc1cc(-c2ccncc2)cc(C)c1Oc1nc(Nc2ccc(C#N)cc2)ncc1F [A18, 4-((4-(2,6-Dimethyl-4-(pyridin-4-yl)phenoxy)-5-fluoropyrimidin-2-yl)amino)benzonitrile] | 56 ± 44 nM | >868 | > 49000 nM
12 | N#Cc1ccc(Nc2ncc(F)c(Nc3ccc(-c4ccncc4)cc3F)n2)cc1 [A19, 4-((5-Fluoro-4-((2-fluoro-4-(pyridin-4-yl)phenyl)amino)pyrimidin-2-yl)amino)benzonitrile] | 18 ± 14 nM | >2765 | > 50000 nM
13 | N#Cc1ccc(Nc2ncc(F)c(Nc3ccc(-c4ccncc4)cc3Cl)n2)cc1 [A20, 4-((4-((2-Chloro-4-(pyridin-4-yl)phenyl)amino)-5-fluoropyrimidin-2-yl)amino)benzonitrile] | 10 ± 1.7 nM | >4819 | > 48000 nM
14 | Cc1cc(-c2ccncc2)ccc1Nc1nc(Nc2ccc(C#N)cc2)ncc1F [A21, 4-((5-Fluoro-4-((2-methyl-4-(pyridin-4-yl)phenyl)amino)pyrimidin-2-yl)amino)benzonitrile] | 6.1 ± 1.3 nM | >8421 | > 51000 nM
15 | COc1cc(-c2ccncc2)ccc1Nc1nc(Nc2ccc(C#N)cc2)ncc1F [A22, 4-((5-Fluoro-4-((2-methoxy-4-(pyridin-4-yl)phenyl)amino)pyrimidin-2-yl)amino)benzonitrile] | 8 ± 2.7 nM | >6154 | > 49000 nM
16 | N#Cc1ccc(Nc2ncc(F)c(Nc3c(F)cc(-c4ccncc4)cc3F)n2)cc1 [A23, 4-((4-((2,6-Difluoro-4-(pyridin-4-yl)phenyl)amino)-5-fluoropyrimidin-2-yl)amino)benzonitrile] | 7.6 ± 1.2 nM |  | 21000 ± 18000 nM

Row | SMILES | EC50 [1] | SI (IIIB) [1] | CC50 [2]
17 | N#Cc1ccc(Nc2ncc(Cl)c(Oc3ccc(-c4ccc(C#N)cc4)cc3F)n2)cc1 [B1, 4′-((5-Chloro-2-((4-cyanophenyl)amino)pyrimidin-4-yl)oxy)-3′-fluoro-[1,1′-biphenyl]-4-carbonitrile] | 8.4 ± 3.4 nM | 4572 | 39000 ± 12000 nM
18 | N#Cc1ccc(Nc2ncc(Cl)c(Oc3ccc(-c4ccc(C#N)cc4)cc3Cl)n2)cc1 [B2, 3′-Chloro-4′-((5-chloro-2-((4-cyanophenyl)amino)pyrimidin-4-yl)oxy)-[1,1′-biphenyl]-4-carbonitrile] | 8.7 ± 2 nM | 3949 | 35000 ± 7300 nM
19 | Cc1cc(-c2ccc(C#N)cc2)ccc1Oc1nc(Nc2ccc(C#N)cc2)ncc1Cl [B3, 4′-((5-Chloro-2-((4-cyanophenyl)amino)pyrimidin-4-yl)oxy)-3′-methyl-[1,1′-biphenyl]-4-carbonitrile] | 7.1 ± 1.6 nM | >6542 | > 46000 nM
20 | COc1cc(-c2ccc(C#N)cc2)ccc1Oc1nc(Nc2ccc(C#N)cc2)ncc1Cl [B4, 4′-((5-Chloro-2-((4-cyanophenyl)amino)pyrimidin-4-yl)oxy)-3′-methoxy-[1,1′-biphenyl]-4-carbonitrile] | 26 ± 13 nM | 412 | 11000 ± 3700 nM
21 | Cc1cc(-c2ccc(C#N)cc2)cc(C)c1Oc1nc(Nc2ccc(C#N)cc2)ncc1Cl [B5, 4′-((5-Chloro-2-((4-cyanophenyl)amino)pyrimidin-4-yl)oxy)-3′,5′-dimethyl-[1,1′-biphenyl]-4-carbonitrile] | 11 ± 4.2 nM | 3478 | 39000 ± 9100 nM
22 | N#Cc1ccc(Nc2ncc(Cl)c(Nc3ccc(-c4ccc(C#N)cc4)cc3F)n2)cc1 [B6, 4′-((5-Chloro-2-((4-cyanophenyl)amino)pyrimidin-4-yl)amino)-3′-fluoro-[1,1′-biphenyl]-4-carbonitrile] | 12 ± 2.7 nM | >3911 | > 45000 nM
23 | N#Cc1ccc(Nc2ncc(Cl)c(Nc3ccc(-c4ccc(C#N)cc4)cc3Cl)n2)cc1 [B7, 3′-Chloro-4′-((5-chloro-2-((4-cyanophenyl)amino)pyrimidin-4-yl)amino)-[1,1′-biphenyl]-4-carbonitrile] | 46 ± 13 nM | >6026 | > 273000 nM
24 | Cc1cc(-c2ccc(C#N)cc2)ccc1Nc1nc(Nc2ccc(C#N)cc2)ncc1Cl [B8, 4′-((5-Chloro-2-((4-cyanophenyl)amino)pyrimidin-4-yl)amino)-3′-methyl-[1,1′-biphenyl]-4-carbonitrile] | 8.2 ± 1.6 nM | >5556 | > 46000 nM
25 | COc1cc(-c2ccc(C#N)cc2)ccc1Nc1nc(Nc2ccc(C#N)cc2)ncc1Cl [B9, 4′-((5-Chloro-2-((4-cyanophenyl)amino)pyrimidin-4-yl)amino)-3′-methoxy-[1,1′-biphenyl]-4-carbonitrile] | 104 ± 68 nM | 2261 | 236000 ± 24000 nM
26 | N#Cc1ccc(Nc2ncc(Cl)c(Oc3ccc(-c4ccncc4)cc3F)n2)cc1 [B12, 4-((5-Chloro-4-(2-fluoro-4-(pyridin-4-yl)phenoxy)pyrimidin-2-yl)amino)benzonitrile] | 7.7 ± 1.9 nM | >6173 | > 48000 nM
27 | N#Cc1ccc(Nc2ncc(Cl)c(Oc3ccc(-c4ccncc4)cc3Cl)n2)cc1 [B13, 4-((5-Chloro-4-(2-chloro-4-(pyridin-4-yl)phenoxy)pyrimidin-2-yl)amino)benzonitrile] | 6.2 ± 1.6 nM | >7477 | > 46000 nM
28 | Cc1cc(-c2ccncc2)ccc1Oc1nc(Nc2ccc(C#N)cc2)ncc1Cl [B14, 4-((5-Chloro-4-(2-methyl-4-(pyridin-4-yl)phenoxy)pyrimidin-2-yl)amino)benzonitrile] | 48 ± 22 nM | >1005 | > 48000 nM
29 | COc1cc(-c2ccncc2)ccc1Oc1nc(Nc2ccc(C#N)cc2)ncc1Cl [B15, 4-((5-Chloro-4-(2-methoxy-4-(pyridin-4-yl)phenoxy)pyrimidin-2-yl)amino)benzonitrile] | 6.7 ± 2.3 nM | >6897 | > 47000 nM
30 | Cc1cc(-c2ccncc2)cc(C)c1Oc1nc(Nc2ccc(C#N)cc2)ncc1Cl [B16, 4-((5-Chloro-4-(2,6-dimethyl-4-(pyridin-4-yl)phenoxy)pyrimidin-2-yl)amino)benzonitrile] | 105 ± 51 nM | 2327 | 243000 ± 62000 nM
31 | N#Cc1ccc(Nc2ncc(Cl)c(Nc3ccc(-c4ccncc4)cc3F)n2)cc1 [B17, 4-((5-Chloro-4-((2-fluoro-4-(pyridin-4-yl)phenyl)amino)pyrimidin-2-yl)amino)benzonitrile] | 142 ± 14 nM | >342 | > 48000 nM
32 | N#Cc1ccc(Nc2ncc(Cl)c(Nc3ccc(-c4ccncc4)cc3Cl)n2)cc1 [B18, 4-((5-Chloro-4-((2-chloro-4-(pyridin-4-yl)phenyl)amino)pyrimidin-2-yl)amino)benzonitrile] | 83 ± 69 nM | >563 | > 46000 nM
